Data as given in patent US9880171B2, “iASPP phosphorylation and metastatic potential” (LUDWIG INSTITUTE FOR CANCER RESEARCH LTD., priority 2012, dated 2018).

What was measured:
Type in all cases: cell-based, human
[1] = system: slow-migrating iASPP in H1299 cells; assay: induction of slow-migrating iASPP by chemotherapeutic agents in H1299 cells (WB); details: H1299, overnight treatment (oxidative stress inducers 1-3 h; EDTA 4 mM 1 hour), antibody LX49.3
Description: FIG. 3. […] H1299 cells were treated overnight with the indicated concentrations of mitosis-arrest drugs nocodazole, colchicine and taxol, DNA damaging drugs, or oxidative stress inducers (1-3 h). Total lysate was prepared in UREA buffer, and iASPP expression patterns were determined using antibody LX49.3. […] Mitotic-arrest drugs were applied to H1299 cells to induce iASPP mobility shift. Floating and adherent cells were collected, and iASPP expression pattern was determined by western blotting (WB). C. […] Left panel, cells in mitosis (floating) and interphase (adherent) were collected by mitotic shake-off, and iASPP expression pattern was determined by WB. Right panel, H1299 cells after Taxol treatment, or mitotic shake-off were immunofluorescence stained using antibody LX49.3. In mitotic shake-off experiment, mitotic shake-off cells were cytospun to slides; the remaining adherent cells after shaking were scraped off and used as interphase control. […] Melanoma cells were treated with nocodazole overnight and iASPP expression patterns from total cell lysate was determined by WB.
FIG. 4. A. Floating and adherent H1299 cells separately collected by mitotic shake-off (FIG. 3C) were stained with propidium iodide (PI), followed by FACS analysis. […] B. H1299 cells were subjected to treatment of 10 μM nocodazole for 24 hours (Nocodazole), on ice for 30 minutes (Cold shock), or 4 mM EDTA for 1 hour (EDTA). Left panel: iASPP expression pattern was analysed by immunoblotting. Right panel: phase contrast images were taken before collection of the cells for WB analysis. Bar=20 μm.
(§1) For WB, cells were lysed in buffer containing 8 M urea, 1 M thiourea, 0.5% CHAPS, 50 mM DTT, and 24 mM spermine. A total of 40 μg of protein extract was loaded per lane into SDS-polyacrylamide gels. Gels were transferred onto nitrocellulose membrane (Protran) and the resulting blots incubated first with primary antibody overnight at 4° C. and then with the appropriate secondary horseradish peroxidize-conjugated antibody (Dako). The results were visualized by enhanced chemiluminescent detection (Amersham Biosciences) using X-ray film (Fujifilm). For cell lysate immunoprecipitation, cells were dissolved in NP40 buffer (50 mM Tris-HCl pH 8.0, 150 mM NaCl, 1% NP-40) with protease inhibitor cocktail mix (Roche Diagnostics). Cells were further thoroughly broken by ultrasonication, followed by spinning for 1 hour. Achieved suspension was adjusted to 1-2 mg/ml using NP40 buffer and incubated with 20 μl nickel beads, glutathione beads, or protein A beads (with 2 μg required antibody) for 2 h at room temperature. The beads were washed for four times with NP40 buffer, boiled for 5 min in Laemmli sample buffer, and applied for Western blotting. For pure protein immunoprecipitation, 5-10 μg purified proteins were mixed in NP40 buffer with 1 mg/ml BSA for 2 h at room temperature.
As mitotic cells often detach from the tissue culture dish, floating cells were separated from adherent cells after the treatment of Nocodozole, Taxol and Colchicine.

[2] = system: slow-migrating iASPP in melanoma cell lines; assay: induction of slow-migrating iASPP in melanoma cell lines (WB); details: panel of melanoma cell lines, nocodazole overnight
Description: FIG. 3. Mitotic arrests induces slow-migrating nuclear iASPP. A. Mitosis-arresting (i.e., apoptosis-inducing) chemotherapeutic drugs induce slow-migrating iASPP. H1299 cells were treated overnight with the indicated concentrations of mitosis-arrest drugs nocodazole, colchicine and taxol, DNA damaging drugs, or oxidative stress inducers (1-3 h). Total lysate was prepared in UREA buffer, and iASPP expression patterns were determined using antibody LX49.3. B. Slow-migrating iASPP exclusively exists in mitotic cells after drug induction. Mitotic-arrest drugs were applied to H1299 cells to induce iASPP mobility shift. Floating and adherent cells were collected, and iASPP expression pattern was determined by western blotting (WB). C. Slow-migrating iASPP exists in natural mitotic cells and localized in nucleus (as determining by staining with the nuclear specific marker Topro). Left panel, cells in mitosis (floating) and interphase (adherent) were collected by mitotic shake-off, and iASPP expression pattern was determined by WB. Right panel, H1299 cells after Taxol treatment, or mitotic shake-off were immunofluorescence stained using antibody LX49.3. […] Melanoma cells were treated with nocodazole overnight and iASPP expression patterns from total cell lysate was determined by WB. […]

[3] = system: iASPP modification and p53-iASPP binding in WM278 cells; assay: iASPP modification and p53 co-immunoprecipitation in WM278 cells; details: 0.4 μM JNJ or 10 μM nocodazole overnight
Description: as §1

SMILES: COC(=O)Nc1nc2ccc(C(=O)c3cccs3)cc2[nH]1 [Nocodazole]
- induction of slow-migrating iASPP isoform [1]: induced
- induction of slow-migrating iASPP isoform [2]: induced the conversion of faster migrating iASPP into the slower migrating iASPP isoform
- amount of modified iASPP [3]: induced iASPP modification
